Results on 1 compound are retold here after the NIST ThermoML archive (doi:10.1021/acs.jced.8b00931).

± gives the expanded uncertainty stated by the source.

For data set [1] the following is noted: Crystal; DSC.
Data set [2] in a line: Molar enthalpy of transition or fusion. The conditions noted are these: Crystal; DSC.

Take `Nc1cc([N+](=O)[O-])ccc1Cl` [2-chloro-5-nitroaniline]: in data set [1], the Triple point temperature turned out to be 393.39 ± 1.2 K. In data set [2], the “Molar enthalpy of transition or fusion” value came out at 6.46 ± 0.232 kcal/mol.
